Experimental data reported in article PMC6339567 (Analytical chemistry, 2018).
One block for each compound: values may come before it.

Tests used:
[1] = tested on: confluent monolayers of primary murine colonic epithelial cells; type: in vitro ADME, mouse; settings: upper bound for all monolayers with TEER >300 Ω cm^2 (n=6)
P-gp = P-gp (Mus musculus, UniProt P21447); experiment: in vitro
in vitro = settings: mouse
[2] = tested on: confluent monolayers of primary murine colonic epithelial cells; settings: Figure 4A

P-gp, sequence (P21447 whole entry): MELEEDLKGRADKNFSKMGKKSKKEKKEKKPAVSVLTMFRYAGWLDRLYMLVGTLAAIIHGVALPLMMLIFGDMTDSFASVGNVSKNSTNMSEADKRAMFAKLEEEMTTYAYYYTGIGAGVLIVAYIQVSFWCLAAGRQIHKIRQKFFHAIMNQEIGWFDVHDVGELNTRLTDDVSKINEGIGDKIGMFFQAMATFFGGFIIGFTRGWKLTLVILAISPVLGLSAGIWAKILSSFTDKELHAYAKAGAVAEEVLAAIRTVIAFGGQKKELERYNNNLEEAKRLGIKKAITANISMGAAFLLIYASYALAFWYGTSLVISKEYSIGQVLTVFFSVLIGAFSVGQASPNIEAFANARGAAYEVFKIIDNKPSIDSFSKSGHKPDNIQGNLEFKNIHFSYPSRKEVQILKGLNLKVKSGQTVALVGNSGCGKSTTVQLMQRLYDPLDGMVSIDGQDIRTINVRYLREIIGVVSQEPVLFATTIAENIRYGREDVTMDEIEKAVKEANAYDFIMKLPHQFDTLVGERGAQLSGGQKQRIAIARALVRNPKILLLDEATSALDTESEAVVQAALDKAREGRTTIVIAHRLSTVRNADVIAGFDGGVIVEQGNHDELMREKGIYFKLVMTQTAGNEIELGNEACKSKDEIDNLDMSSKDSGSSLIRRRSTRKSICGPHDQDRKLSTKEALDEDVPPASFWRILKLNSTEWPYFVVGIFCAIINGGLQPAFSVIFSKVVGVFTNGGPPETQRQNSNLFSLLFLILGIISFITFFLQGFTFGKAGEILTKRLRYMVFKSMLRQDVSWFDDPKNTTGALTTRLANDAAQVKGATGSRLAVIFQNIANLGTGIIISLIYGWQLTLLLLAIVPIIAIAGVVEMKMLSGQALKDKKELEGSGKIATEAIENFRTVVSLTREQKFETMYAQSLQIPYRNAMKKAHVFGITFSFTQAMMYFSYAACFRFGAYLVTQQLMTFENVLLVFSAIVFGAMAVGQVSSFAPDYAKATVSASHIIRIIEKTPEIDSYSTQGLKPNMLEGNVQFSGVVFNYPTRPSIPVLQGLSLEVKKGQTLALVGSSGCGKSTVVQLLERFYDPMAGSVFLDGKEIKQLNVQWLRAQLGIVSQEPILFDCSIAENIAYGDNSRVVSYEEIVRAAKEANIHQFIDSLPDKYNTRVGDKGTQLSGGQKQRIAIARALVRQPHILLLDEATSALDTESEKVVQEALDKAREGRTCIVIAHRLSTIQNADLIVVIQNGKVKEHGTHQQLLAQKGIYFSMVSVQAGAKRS

- Papp for LY, all monolayers with TEER >300 Ω cm^2 [1]: < 0.45 ×10⁻⁶ cm/s
Compound: lucifer yellow [LY]

- efflux ratio at 2 h, 10 µM (P-gp): 7
Compound: COC(=O)c1ccccc1-c1c2ccc(=N)cc-2oc2cc(N)ccc12 [Rh123, rhodamine 123]

- Papp at 3 h, 10 µM (in vitro): 9.69 ×10⁻⁶ cm/s
- permeability across day-5 monolayers (in words) [2]: high Papp
Compound: CC(C)NCC(O)COc1cccc2ccccc12 (stereo not shown) [propranolol]
